Assay results: the SangsterLogP compilation

Assay: method code SF-HPLC, from DOI: 10.1016/j.ejmech.2006.12.027, PMID: 17306423
CC1(C)N(O)C(c2cccc([N+](=O)[O-])c2)=[N+]([O-])C1(C)C gave a logP of 1.64. In the case of CC1(C)N(O)C(c2ccc(OCC(=O)O)cc2)=[N+]([O-])C1(C)C, the logP is reported as -0.52. Work on CC1(C)N(O)C(c2ccc(Cl)cc2Cl)=[N+]([O-])C1(C)C yielded a logP of 1.93. Compound COc1cc(C2=[N+]([O-])C(C)(C)C(C)(C)N2O)ccc1O has a logP of 1.14. Cc1ccc(C2=[N+]([O-])C(C)(C)C(C)(C)N2O)cc1 showed a logP of 1.9. CC1(C)N(O)C(c2cccnc2)=[N+]([O-])C1(C)C showed a logP of 0.51. Work on CC1(C)N(O)C(c2cccc(O)c2)=[N+]([O-])C1(C)C yielded a logP of 1.14. Compound CC1(C)N(O)C(c2ccc([N+](=O)[O-])cc2)=[N+]([O-])C1(C)C has a logP of 1.68. Compound CC1(C)N(O)C(c2ccc(Cl)cc2)=[N+]([O-])C1(C)C has a logP of 2.33. With COc1ccc(C2=[N+]([O-])C(C)(C)C(C)(C)N2O)c(OC)c1 the logP was 0.77. With CC1(C)N(O)C(c2ccc(Br)cc2)=[N+]([O-])C1(C)C the logP was 2.46. CC1(C)N(O)C(c2ccccc2[N+](=O)[O-])=[N+]([O-])C1(C)C showed a logP of 0.91. COc1ccc(C2=[N+]([O-])C(C)(C)C(C)(C)N2O)cc1OC gave a logP of 1.15. For CC1(C)N(O)C(c2ccco2)=[N+]([O-])C1(C)C, the logP was 0.62. Compound CC1(C)N(O)C(c2ccc(O)cc2)=[N+]([O-])C1(C)C has a logP of 0.62. For COc1ccc(C2=[N+]([O-])C(C)(C)C(C)(C)N2O)cc1, the logP was 1.62. Compound CC1(C)N(O)C(c2ccccc2O)=[N+]([O-])C1(C)C has a logP of 1.17. In the case of CC1(C)N(O)C(c2ccc3c(c2)OCO3)=[N+]([O-])C1(C)C, the logP is reported as 1.51. Work on COc1ccc(C2=[N+]([O-])C(C)(C)C(C)(C)N2O)cc1O yielded a logP of 0.92. Compound CC1(C)N(O)C(c2ccccc2F)=[N+]([O-])C1(C)C has a logP of 0.82. CC1(C)N(O)C(c2ccccc2)=[N+]([O-])C1(C)C showed a logP of 1.37. With CN(C)c1ccc(C2=[N+]([O-])C(C)(C)C(C)(C)N2O)cc1 the logP was 2.02.
